This passage reports Activity, IC50 and UI results from ChEMBL document CHEMBL5543086, “Discovery of novel NSAID hybrids as cPLA2/COX-2 dual inhibitors alleviating rheumatoid arthritis via inhibiting p38 MAPK pathway” (Eur J Med Chem, 2024).

SMILES strings stand for the structures. Activity calls are given as the source filed them. The calls are words filed in the database; no cut-off is given here.

Data set [1] has as its system RAW264.7. As to the kind of experiment: Cytotoxicity against LPS-induced mouse RAW264.7 cells assessed as reduction in cell viability at 30 uM pretreated for 1 hr followed by LPS addition and measured after 24 hrs by MTT assay. The class given is toxicity, cell-based. The conditions noted are these: raw264.7, 25 h. On the technique in general: Formazan colour is commonly taken as a measure of viable cells.

Data set [2] has as its system RAW264.7. As to the kind of experiment: Antiinflammatory activity in LPS-induced mouse RAW264.7 cells assessed as inhibition of NO production pretreated for 1 hr followed by LPS stimulation and measured after 24 hrs by griess reagent based assay. The class given is functional, cell-based. For orientation: Griess reagent forms a coloured azo dye with nitrite.
Data set [3] relates to Rattus norvegicus. As to the kind of experiment: Antiarthritic activity in Freund's complete adjuvant induced Lewis rat model of arthritis assessed as reduction in PGE2 level in serum at 20 mg/kg, po administered every 24 hrs for 28 days post immunization starting from day 8 post immunization by ELISA. In kind it is functional, organism-based. The conditions noted are these: time 21.0 day.

Data set [4] concerns Rattus norvegicus. Kind of data set: Antiarthritic activity in Freund's complete adjuvant induced Lewis rat model of arthritis assessed as reduction in TNFalpha level in serum at 20 mg/kg, po administered every 24 hrs for 28 days post immunization starting from day 8 post immunization by ELISA. The conditions noted are these: time 21.0 day. The class given is functional, organism-based. On the technique in general: An ELISA detects its analyte on a solid surface through an enzyme-linked reagent.

Data set [5] relates to Rattus norvegicus. As to the kind of experiment: Antiarthritic activity in Freund's complete adjuvant induced Lewis rat model of arthritis assessed as reduction in IL-6 level in serum at 20 mg/kg, po administered every 24 hrs for 28 days post immunization starting from day 8 post immunization by ELISA. In kind it is functional, organism-based. As to conditions: time 21.0 day.

In data set [6] the test system is Rattus norvegicus. As to the kind of experiment: Immunomodulatory activity in Freund's complete adjuvant induced Lewis rat model of arthritis assessed as reduction in IL-17 level in serum at 20 mg/kg, po administered every 24 hrs for 28 days post immunization starting from day 8 post immunization by ELISA. In kind it is functional, organism-based. As to conditions: time 21.0 day.

Data set [7] relates to Rattus norvegicus. Kind of data set: Immunomodulatory activity in Freund's complete adjuvant induced Lewis rat model of arthritis assessed as increase in IL-10 level in serum at 20 mg/kg, po administered every 24 hrs for 28 days post immunization starting from day 8 post immunization by ELISA. The conditions noted are these: time 21.0 day. The class given is functional, organism-based.

Data set [8] relates to Rattus norvegicus. Kind of data set: Immunomodulatory activity in Freund's complete adjuvant induced Lewis rat model of arthritis assessed as increase in anti-IL-10 antibody expression in knee joint slices at 20 mg/kg, po administered every 24 hrs for 28 days post immunization starting from day 8 post immunization by immunohistochemistry analysis. The conditions noted are these: time 21.0 day. In kind it is functional, organism-based.

Data set [9] deals with Rattus norvegicus. Kind of data set: Immunomodulatory activity in Freund's complete adjuvant induced Lewis rat model of arthritis assessed as decrease in anti-IL-17 antibody expression in knee joint slices at 20 mg/kg, po administered every 24 hrs for 28 days post immunization starting from day 8 post immunization by immunohistochemistry analysis. In kind it is functional, organism-based. The conditions noted are these: time 21.0 day.

Data set [10] in a line: Toxicity in male Wistar rat assessed as gastrointestinal damage by measuring number of ulcers at 50 mg/kg administered by gavage and measured after 6 hrs (reference value: 0). As to conditions: in vivo, po. In kind it is organism-based.
Data set [11] in a line: Toxicity in male Wistar rat assessed as gastrointestinal damage by measuring level-1 ulcers with <1 mm area at 50 mg/kg administered by gavage and measured after 6 hrs. The class given is organism-based. As to conditions: in vivo, po.
The nature of data set [12]: Toxicity in male Wistar rat assessed as gastrointestinal damage by measuring level-2 ulcers with 1 to 3 mm area at 50 mg/kg administered by gavage and measured after 6 hrs. In kind it is organism-based. The conditions noted are these: in vivo, po.
The nature of data set [13]: Toxicity in male Wistar rat assessed as gastrointestinal damage by measuring level-3 ulcers with >3 mm area at 50 mg/kg administered by gavage and measured after 6 hrs. In kind it is organism-based. As to conditions: in vivo, po.
Data set [14] can be described thus: Toxicity in male Wistar rat assessed as gastrointestinal damage by measuring ulcer index at 50 mg/kg administered by gavage and measured after 6 hrs. The class given is organism-based. The conditions noted are these: in vivo, po.

As to `CC(C(=O)O)c1cccc(C(=O)c2ccccc2)c1` (centres undefined) [KETOPROFEN], the Activity entry with RAW264.7 [1] is on record as “Non-Toxic”; in data set [10], 23; in data set [11] it was 65%; in data set [12], 30%; in [13], 4%. For the same compound, the IC50 in the data set on RAW264.7 [2] stood at 7.07 µM. Moreover, the outcome with Rattus norvegicus [3], with Rattus norvegicus [4], in the data set with Rattus norvegicus [5], in the data set with Rattus norvegicus [6], in the data set on Rattus norvegicus [7] and in the data set with Rattus norvegicus [8] was Active. Also, the result with Rattus norvegicus [9] was Active. The UI in data set [14] is 40.

In general, IC50 refers to the point on the concentration scale where inhibition reaches its midpoint.
